From patent US4489094A, “Arylalkylaminobenzoic acids” (American Cyanamid Company, priority 1983, dated 1984)

Biological target: T1, fatty acyl CoA: cholesterol acyl transferase (ACAT) (Rattus norvegicus, UniProt O70536)
T1 construct: Rat adrenals were homogenized; from tissue; host or cells: rat adrenals, 1,000 x g supernatant containing the microsomal fraction
T1 sequence (O70536 1-545): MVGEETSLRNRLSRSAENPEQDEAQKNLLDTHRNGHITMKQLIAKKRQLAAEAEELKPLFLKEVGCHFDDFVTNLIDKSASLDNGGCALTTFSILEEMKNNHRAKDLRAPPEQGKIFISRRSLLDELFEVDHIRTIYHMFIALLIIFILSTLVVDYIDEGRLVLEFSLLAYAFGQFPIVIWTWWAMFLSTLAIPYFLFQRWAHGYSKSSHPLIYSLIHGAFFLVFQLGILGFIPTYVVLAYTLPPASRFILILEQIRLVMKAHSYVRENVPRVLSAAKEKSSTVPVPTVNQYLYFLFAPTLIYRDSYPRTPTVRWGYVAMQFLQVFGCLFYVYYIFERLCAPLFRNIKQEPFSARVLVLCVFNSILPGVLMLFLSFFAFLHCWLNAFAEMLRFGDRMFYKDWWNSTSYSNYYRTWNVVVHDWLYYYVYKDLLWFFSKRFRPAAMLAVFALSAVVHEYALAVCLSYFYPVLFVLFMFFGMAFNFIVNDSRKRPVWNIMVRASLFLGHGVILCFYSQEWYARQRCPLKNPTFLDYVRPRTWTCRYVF
Experiment: Inhibition of enzymatic esterification of cholesterol (ACAT), rat adrenal microsomal supernatant
Format: biochemical
Conditions: final concentration of test compound 5.2 μg./ml.; percent inhibition of the ACAT enzyme compared to control values
Description: The compounds of the present invention were tested for their ability to inhibit the enzymatic esterification of cholesterol according to the following procedure:
Rat adrenals were homogenized in 0.2M monobasic potassium phosphate buffer, pH 7.4, and centrifuged at 1,000 times gravity for 15 minutes at 5° C. The supernatant, containing the microsomal fraction, served as the source of the cholesterol-esterifying enzyme, fatty acyl CoA: cholesterol acyl transferase (ACAT). A mixture comprising 50 parts of adrenal supernatant, 10 parts of albumin (BSA) (50 mg./m.), […], 3 parts of test compound, and 500 parts of buffer was pre-incubated at 37° C. for 10 minutes. After treatment with 20 parts of oleoyl CoA (^14 C-0.4 μCi), the mixture was incubated at 37° C. for 10 minutes. A control mixture, omitting the test compound, was prepared and treated in the same manner. The lipids from the incubation mixture were extracted into an organic solvent and separated by thin-layer chromatography. The cholesterol ester fraction was counted in a scintillation counter. This procedure is a modification of that described by Hashimoto, et al. Life Scie., 12 (Part II), 1-12 (1973).
The results of this test on representative compounds of this invention appear in Table I. The final concentration of the test compound was 5.2 μg./ml., and effectiveness of the compound is expressed as percent inhibition of the ACAT enzyme compared to control values.

SMILES | inhibition at 5.2 µg/mL
CCOC(=O)c1ccc(NCC=C(c2ccc(Cl)cc2)c2ccc(Cl)cc2)cc1 [4-[[3,3-Bis(p-chlorophenyl)allyl]amino]benzoic acid, ethyl ester] | 81%
O=C(O)c1ccc(NCC(c2ccc(Cl)cc2)c2ccc(Cl)cc2)cc1 [4-[[2,2-Bis(p-chlorophenyl)ethyl]amino]benzoic acid] | 19%
O=C(O)c1ccc(NCC=C(c2ccc(Cl)cc2)c2ccc(Cl)cc2)cc1 [4-[[3,3-Bis(p-chlorophenyl)allyl]amino]benzoic acid] | 46%
CCOC(=O)c1ccc(NCCC(c2ccc(Cl)cc2)c2ccc(Cl)cc2)cc1 [4-[[3,3-Bis(p-chlorophenyl)propyl]amino]benzoic acid, ethyl ester] | 89%
O=C(O)c1ccc(N(CCCc2ccc(Cl)cc2)CCCc2ccc(Cl)cc2)cc1 [4-[Bis[3-(p-chlorophenyl)propyl]amino]benzoic acid] | 33%
O=C(O)c1ccc(NCCC(c2ccc(Cl)cc2)c2ccc(Cl)cc2)cc1 [4-[[3,3-Bis(p-chlorophenyl)propyl]amino]benzoic acid] | 21%

More lines, now with the values ahead:

inhibition at 5.2 µg/mL | SMILES
6% | O=C(O)c1ccc(NCc2ccc(Cl)cc2)cc1 [4-[[(p-chlorophenyl)methyl]amino]benzoic acid]
53% | CCOC(=O)c1ccc(N(C)CCCc2ccc(Cl)cc2)cc1 [4-[[3-(p-Chlorophenyl)propyl]methylamino]benzoic acid, ethyl ester]
24% | CN(CCCc1ccc(Cl)cc1)c1ccc(C(=O)O)cc1 [4-[[3-(p-Chlorophenyl)propyl]methylamino]benzoic acid]
55% | CCOC(=O)c1ccc(NC(c2ccc(Cl)cc2)c2ccc(Cl)cc2)cc1 [4-[[Bis(p-chlorophenyl)methyl]amino]benzoic acid, ethyl ester]
33% | CCN(CCCc1ccc(Cl)cc1)c1ccc(C(=O)O)cc1 [4-[[3-(p-Chlorophenyl)propyl]ethylamino]benzoic acid]
48% | CCOC(=O)c1ccc(N(CC)CCCc2ccc(Cl)cc2)cc1 [4-[[3-(p-Chlorophenyl)propyl]ethylamino]benzoic acid, ethyl ester]
